Values quoted from earlier work as cited in article PMC8583936, “Machine Learning Assisted Approach for Finding Novel High Activity Agonists of Human Ectopic Olfactory Receptors” (International Journal of Molecular Sciences, 2021).
Counter-ions that a name gives are not always drawn. Like-named read-outs stand apart in the source and are kept apart here.

Legend:
OR2W1 = target: T1, OR2W1 (Homo sapiens, UniProt Q9Y3N9); conditions: cited from earlier work
T1 sequence (Q9Y3N9 1-320): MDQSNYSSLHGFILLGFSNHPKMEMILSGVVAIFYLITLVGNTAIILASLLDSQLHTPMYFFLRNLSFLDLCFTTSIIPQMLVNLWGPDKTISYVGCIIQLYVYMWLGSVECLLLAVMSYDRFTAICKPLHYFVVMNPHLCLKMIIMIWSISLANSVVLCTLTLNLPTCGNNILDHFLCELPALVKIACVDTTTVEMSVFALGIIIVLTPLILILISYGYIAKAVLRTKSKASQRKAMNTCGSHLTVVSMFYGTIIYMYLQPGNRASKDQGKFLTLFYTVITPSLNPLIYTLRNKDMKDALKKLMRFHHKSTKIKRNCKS

OR1A1 = target: T2, OR1A1 (Homo sapiens, UniProt Q9P1Q5); conditions: cited from earlier work
T2 sequence (Q9P1Q5 1-309): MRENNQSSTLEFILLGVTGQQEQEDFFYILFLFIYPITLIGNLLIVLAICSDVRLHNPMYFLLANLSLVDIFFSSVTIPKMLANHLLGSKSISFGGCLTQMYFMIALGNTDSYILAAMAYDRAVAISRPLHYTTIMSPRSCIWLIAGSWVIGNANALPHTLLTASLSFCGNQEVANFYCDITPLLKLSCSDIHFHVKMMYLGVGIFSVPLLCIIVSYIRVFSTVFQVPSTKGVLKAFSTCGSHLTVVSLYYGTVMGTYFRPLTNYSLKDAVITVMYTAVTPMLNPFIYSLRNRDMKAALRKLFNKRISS

[1] = Table S2, ref Supplement references [2]-[12] as printed after each odorant name
[2] = Table S1, ref Supplement references [1]-[9] as printed after each odorant name

Structure (SMILES)	Class (agonist / non-agonist / antagonist / conflicting info.) for OR2W1 (OR2W1)	Class (agonist / non-agonist / conflicting info.) for OR1A1 (OR1A1)	Class (agonist / non-agonist / antagonist / conflicting info.) for OR2W1 (OR2W1; [1])	Class (agonist / non-agonist / conflicting info.) for OR1A1 (OR1A1; [2])	Class (agonist / non-agonist / antagonist / conflicting info.) for OR2W1 (OR2W1; Table S2, ref Supplement references [2]-[12] as printed after each odorant name, listed as Capric acid)
C[C@@]12C=CC[C@H]1[C@@H]1CCC3=CC(=O)CC[C@]3(C)[C@H]1CC2 [Androstadienone]	Antagonist	Agonist	–	–	–
C[C@]12CCC(=O)C[C@@H]1CC[C@@H]1[C@@H]2CC[C@]2(C)C=CC[C@@H]12 [Androstenone]	Antagonist	Conflicting info.	–	–	–
COc1ccc(C=O)cc1 [Anisaldehyde]	–	–	Non-agonist	Non-agonist	–
c1ccccc1 [Benzene]	–	–	Non-agonist	Conflicting info.	–
CC(=O)OCc1ccccc1 [Benzyl acetate]	–	–	Agonist	Agonist	–
C/C=C/C(=O)C1=C(C)CCCC1(C)C [Beta-damascone]	–	–	Non-agonist	Conflicting info.	–
CSCSC [Bis(methylthio)methane]	Non-agonist	Non-agonist	–	–	–
CCCC=O [Butanal]	–	–	Non-agonist	Non-agonist	–
CCCCOC(C)=O [Butyl acetate]	–	–	Non-agonist	Non-agonist	–
CCCCOC(=O)c1ccccc1N [Butyl anthranilate]	Agonist	Agonist	–	–	–
CCCCOC(=O)C(C)OC(=O)CCC (stereo not shown) [Butyl butyryl lactate]	–	–	Non-agonist	Non-agonist	–
CCCCOC=O [Butyl formate]	–	–	Conflicting info.	Conflicting info.	–
CCCCCCC(=O)OCCCC [Butyl heptanoate]	–	–	Non-agonist	Non-agonist	–
CCCC(=O)O [Butyric acid]	–	–	Conflicting info.	Conflicting info.	–
O=C/C=C/c1ccccc1 [Cinnamaldehyde]	–	–	Non-agonist	Agonist	–
CC(=O)OC/C=C/c1ccccc1 [Cinnamyl acetate]	–	–	Agonist	Non-agonist	–
OCC=Cc1ccccc1 [Cinnamyl alcohol]	–	–	Non-agonist	Non-agonist	–
CC/C=C\CCO [Cis-3-hexen-1-ol]	–	–	Conflicting info.	Conflicting info.	–
CC(C)=CCC/C(C)=C/C=O [Citral]	Conflicting info.	Conflicting info.	–	–	–
O=c1ccc2ccccc2o1 [Coumarin]	–	–	Conflicting info.	Non-agonist	–
CC(C)c1ccc(C=O)cc1 [Cuminaldehyde]	–	–	Non-agonist	Non-agonist	–
O=C1CCCCC1 [Cyclohexanone]	–	–	Non-agonist	Non-agonist	–
C/C=C/C(=O)C1=C(C)C=CCC1(C)C [Damascenone]	–	–	Non-agonist	Non-agonist	–
CCCCCCCCCC=O [Decanal]	–	–	Non-agonist	Conflicting info.	–
CCCCCCCCCC(=O)O [Decanoic acid / capric acid]	–	–	–	Non-agonist	Conflicting info.
CCCCCC1CCCC(=O)O1 (stereo not shown) [Delta-decalactone]	–	–	Non-agonist	Non-agonist	–
